17 compounds from US12427210B2, “Compounds comprising a fibroblast activation protein ligand and use thereof” (priority 2019, dated 2025) can be followed below.

Data set [1] deals with Activated Protein C (Homo sapiens, UniProt P04070). Nature of the data set: biochemical. The following applies: read-out: Percentage inhibition (%), Reference.
The target of data set [2] is FAP-expressing human WI-38 fibroblasts (Homo sapiens, UniProt Q12884). Put plainly: cell-based.
Data set [3] addresses T1, FAP (Homo sapiens, UniProt Q12884). Put plainly: biochemical.
The subject of data set [4] is Sarc4809 PDX tumors. Put plainly: Efficacy study sarcoma Sarc4809 PDX model.
The test system of data set [5] is HEK-FAP tumors. Nature of the data set: Efficacy study HEK-FAP.
A short description of data set [6]: in vitro. The following applies: human, plasma.
Data set [7] can be described thus: in vitro. Particulars: rat, plasma.
Data set [8] can be described thus: in vitro. Particulars: mouse, plasma.
Data set [9] concerns the target T1, FAP. Put plainly: biochemical. This is another data set of the same source.
The target of data set [10] is T2, Caspase-7 (Homo sapiens, UniProt P55210).
T2 sequence (P55210 24-198 limits assumed): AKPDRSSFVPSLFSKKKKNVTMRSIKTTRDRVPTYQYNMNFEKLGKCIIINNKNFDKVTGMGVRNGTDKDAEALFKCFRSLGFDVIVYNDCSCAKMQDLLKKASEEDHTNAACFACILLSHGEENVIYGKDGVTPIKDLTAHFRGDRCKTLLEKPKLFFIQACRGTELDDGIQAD
T2 sequence (P55210 207-303 limits assumed): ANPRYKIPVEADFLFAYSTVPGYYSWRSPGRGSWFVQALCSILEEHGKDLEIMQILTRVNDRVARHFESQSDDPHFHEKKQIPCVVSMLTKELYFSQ
The following applies: 1 μM.

In data set [11] the target is T3, Caspase-3 (Homo sapiens, UniProt P42574).
T3 sequence (P42574 29-175 limits assumed): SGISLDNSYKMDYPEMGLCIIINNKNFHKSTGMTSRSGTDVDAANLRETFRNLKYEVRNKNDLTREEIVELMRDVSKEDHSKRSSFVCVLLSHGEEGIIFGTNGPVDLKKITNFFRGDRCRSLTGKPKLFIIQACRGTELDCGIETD
T3 sequence (P42574 176-277 limits assumed): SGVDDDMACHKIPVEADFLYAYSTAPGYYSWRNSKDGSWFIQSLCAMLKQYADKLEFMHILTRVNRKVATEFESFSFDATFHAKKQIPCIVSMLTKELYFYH
The following applies: 100 nM.

Data set [12] has as its target T4, Renin (Homo sapiens, UniProt P00797).
T4 sequence (P00797 67-406): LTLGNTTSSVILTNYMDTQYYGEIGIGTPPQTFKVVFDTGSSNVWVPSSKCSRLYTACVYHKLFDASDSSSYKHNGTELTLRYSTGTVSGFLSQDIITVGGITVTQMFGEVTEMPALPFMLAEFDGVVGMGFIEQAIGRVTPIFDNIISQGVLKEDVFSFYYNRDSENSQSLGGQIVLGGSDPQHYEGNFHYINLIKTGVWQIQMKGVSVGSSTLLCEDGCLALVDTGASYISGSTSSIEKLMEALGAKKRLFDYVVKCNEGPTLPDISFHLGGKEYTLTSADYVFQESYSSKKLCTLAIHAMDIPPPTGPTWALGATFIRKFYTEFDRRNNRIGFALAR
Put plainly: biochemical. Particulars: read-out: Percentage inhibition (%), Reference.

In data set [13] the target is 5-HT2B (h) (Homo sapiens, UniProt P41595). Particulars: read-out: Ki Ref; reference compound.
In data set [14] the target is T5, alpha 1A (h) (Homo sapiens, UniProt P35348).
T5 sequence (P35348 1-466): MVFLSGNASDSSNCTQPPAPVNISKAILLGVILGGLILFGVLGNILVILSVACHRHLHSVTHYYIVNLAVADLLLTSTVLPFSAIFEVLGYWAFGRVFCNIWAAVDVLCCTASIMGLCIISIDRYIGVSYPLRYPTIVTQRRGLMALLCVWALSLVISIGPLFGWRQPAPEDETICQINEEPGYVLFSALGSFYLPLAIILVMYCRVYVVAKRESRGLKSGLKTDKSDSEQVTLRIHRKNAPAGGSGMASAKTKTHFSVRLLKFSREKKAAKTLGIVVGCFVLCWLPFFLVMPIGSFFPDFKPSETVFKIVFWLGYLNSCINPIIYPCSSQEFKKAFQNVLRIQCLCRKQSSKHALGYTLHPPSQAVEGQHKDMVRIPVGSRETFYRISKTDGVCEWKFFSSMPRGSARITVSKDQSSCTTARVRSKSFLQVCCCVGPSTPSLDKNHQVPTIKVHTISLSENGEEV
The following applies: read-out: Ki Ref; reference compound.

The target of data set [15] is Cathepsin S (Homo sapiens, UniProt P25774). Particulars: 100 nM.
Data set [16] concerns the target Cathepsin B (Homo sapiens, UniProt P07858). The following applies: 100 nM.
The target of data set [17] is Cathepsin L (Homo sapiens, UniProt P07711). Particulars: 1 μM.
Data set [18] concerns the target Cathepsin V (Homo sapiens, UniProt O60911). The following applies: 100 nM.
Data set [19] concerns the target KV channel. Particulars: read-out: Ki Ref; reference compound.
Data set [20] addresses NMDA. The following applies: read-out: Ki Ref; reference compound.
Data set [21] has as its target T6, Cathepsin F (Homo sapiens, UniProt Q9UBX1).
T6 sequence (Q9UBX1 271-484): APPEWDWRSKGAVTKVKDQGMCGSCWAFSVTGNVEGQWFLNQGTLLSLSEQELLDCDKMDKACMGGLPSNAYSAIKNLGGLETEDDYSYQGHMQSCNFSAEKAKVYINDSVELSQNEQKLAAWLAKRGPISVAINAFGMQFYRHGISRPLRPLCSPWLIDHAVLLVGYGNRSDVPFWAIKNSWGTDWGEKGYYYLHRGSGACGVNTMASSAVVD
Particulars: 1 μM.

[22] abbreviates: throughout the study, all groups.

Numbered stars: 1 amine (or outer) side, 2 acyl side, 3 side chain; on linkers, the order of the positions; unused ones are H or OH. Bridge positions count the residues as written; N and C are the ends. Peptide text beside a SMILES is read from it. * marks the point of attachment. X5 = O=C1CN2CCN3CCN(CC(=O)N4CCN(Cc5cc(C[*:1])cc(C[*:2])c5)CC4)CCN(CC2)CC(=O)[O][Eu]([O]1)[O]C(=O)C3; Hexanoyl = CCCCCC(=O)*

With `[H]/N=C(/N)c1ccc(NCc2nc3cc(C(=O)N(CCC(=O)O)c4ccccn4)ccc3n2C)cc1` [Dabigatran, reference compound], in data set [1], the inhibition at 20 µM amounted to 74%.

In the case of `CCCCCC(=O)N[C@H]1CSCc2cc(CSCCNC(=O)CN3CCN4CCN5CCN(CC3)CC(=O)[O][Eu]([O]C(=O)C4)[O]C(=O)C5)cc(c2)CSC[C@@H](C(=O)O)NC(=O)[C@H](Cc2ccccc2)NC(=O)[C@H](CCC(N)=O)NC(=O)[C@H]([C@@H](C)O)NC(=O)[C@@H]2CCCN2C(=O)[C@@H]2CCCN2C1=O` [Compound 3BP-3662, Hex-[Cys(tMeBn(EuDOTA-AET))-Pro-Pro-Thr-Gln-Phe-Cys]-OH], the IC50 in data set [2] and in data set [3] was less than 10 nM throughout.

For the compound `CCCCCC(=O)N[C@H]1CSCc2cc(CSCCNC(=O)CN3CCN(CC(=O)O)CCN(CC(=O)O)CCN(CC(=O)O)CC3)cc(c2)CSC[C@@H](C(=O)O)NC(=O)[C@H](Cc2ccccc2)NC(=O)[C@H](CCC(N)=O)NC(=O)[C@H]([C@@H](C)O)NC(=O)[C@@H]2CCCN2C(=O)[C@@H]2CCCN2C1=O` [^177Lu-3BP-3554, metal not drawn], the “body weight loss (BWL)” value in [4] (setting [22]) is on record as “No treatment-related body weight loss”. Besides, the body weight loss entry in data set [5] (setting [22]) is given as “No treatment-related body weight loss”.

Take `CCCCCC(=O)N[C@H]1CSCc2cc(CSCCNC(=O)CN3CCN4CCN5CCN(CC3)CC(=O)[O][Lu]([O]C(=O)C4)[O]C(=O)C5)cc(c2)CSC[C@@H](C(=O)O)NC(=O)[C@H](Cc2ccccc2)NC(=O)[C@H](CCC(N)=O)NC(=O)[C@H]([C@@H](C)O)NC(=O)[C@@H]2CCCN2C(=O)[C@@H]2CCCN2C1=O` [Compound 3BP-3624, Hex-[Cys(tMeBn(LuDOTA-AET))-Pro-Pro-Thr-Gln-Phe-Cys]-OH]: the share remaining at 24 h, 9.8 µM in data set [6], in [7] and in data set [8] was 100% in each case. In addition, the Kd in data set [9] was less than 10 nM. In addition, the IC50 in data set [2] and in data set [3] was less than 10 nM each time.

With `CCCCCC(=O)N[C@H]1CSCc2cc(CSCCNC(=O)CN3CCN4CCN(CC(=O)O)CCN(CC3)CC(=O)[O][Zn][O]C(=O)C4)cc(c2)CSC[C@@H](C(=O)O)NC(=O)[C@H](Cc2ccccc2)NC(=O)[C@H](CCC(N)=O)NC(=O)[C@H]([C@@H](C)O)NC(=O)[C@@H]2CCCN2C(=O)[C@@H]2CCCN2C1=O` [Compound 3BP-4343, Hex-[Cys-(tMeBn(ZnDOTA-AET))-Pro-Pro-Thr-Gln-Phe-Cys]-OH], the IC50 in data set [2] and in [3] was less than 10 nM each time.

In the case of `COC[C@@H]1CCCN1S(=O)(=O)c1ccc2c(c1)C(=O)C(=O)N2` [Caspase 3/7 Inhibitor I], the “Percentage inhibition (%), Reference” value in data set [10] was 92%; in data set [11], 89%.

Turning to `COCCCOc1cc(C[C@@H](C[C@H](N)[C@@H](O)C[C@H](C(=O)NCC(C)(C)C(N)=O)C(C)C)C(C)C)ccc1OC` [Aliskiren, reference compound], the inhibition at 0.03 µM in data set [12] turned out to be 99%.

Turning to `CCCCCC(=O)N[C@H]1CSCc2cc(CSCCNC(=O)CN3CCN4CCN5CCN(CC3)CC(=O)[O][Lu]([O]C(=O)C4)[O]C(=O)C5)cc(c2)CSC[C@@H](C(=O)O)NC(=O)[C@H](Cc2ccccc2)NC(=O)[C@H](CCC(N)=O)NC(=O)[C@H]([C@@H](C)O)NC(=O)[C@@H]2CCCN2C(=O)[C@@H]2CCCN2C1=O` [^natLu-3BP-3554], the MTV in [4] (cold compound (control group), day 31) is 1225±775 mm^3. Also, in data set [5] (cold compound, single i.v. injection Day 0, day 14), the “mean tumor volume (MTV)” value is 1392±420 mm^3.

Turning to `CCCCCC(=O)N[C@H]1CSCc2cc(cc(CN3CCN(C(=O)CN4CCN5CCN6CCN(CC4)CC(=O)[O][Eu]([O]C(=O)C6)[O]C(=O)C5)CC3)c2)CSC[C@@H](C(=O)N[C@@H](CC(=O)O)C(N)=O)NC(=O)[C@H](Cc2ccccc2)NC(=O)[C@H](CCC(N)=O)NC(=O)[C@H]([C@@H](C)O)NC(=O)[C@@H]2CCCN2C(=O)[C@@H]2CCCN2C1=O` [Compound 3BP-3661, Hex-[Cys(tMeBn(EuDOTA-PP))-Pro-Pro-Thr-Gln-Phe-Cys]-Asp-NH2] (Hexanoyl-CPPTQFCD-NH2; linker 1-7 via X5), the 50% inhibitory concentration (IC50) in [2] and in [3] was less than 10 nM each time.

For the compound `COc1cc(CC(C)N)c(OC)cc1I` (racemic) [(±)DOI], the Ki in data set [13] was 4.2 nM.

Take `COc1cccc(OC)c1OCCNCC1COc2ccccc2O1` (stereo not shown) [WB 4101]: the Ki in [14] came out at 0.24 nM.

Turning to `CCCCCC(=O)N[C@H]1CSCc2cc(CSCCNC(=O)CN3CCN4CCN5CCN(CC3)CC(=O)[O][Ga]([O]C(=O)C4)[O]C(=O)C5)cc(c2)CSC[C@@H](C(=O)O)NC(=O)[C@H](Cc2ccccc2)NC(=O)[C@H](CCC(N)=O)NC(=O)[C@H]([C@@H](C)O)NC(=O)[C@@H]2CCCN2C(=O)[C@@H]2CCCN2C1=O` [Compound 3BP-3949, Hex-[Cys(tMeBn(GaDOTA-AET))-Pro-Pro-Thr-Gln-Phe-Cys]-OH], the Kd in [9] is less than 10 nM. The IC50 in [2] and in data set [3] was less than 10 nM throughout.

Consider `CC(C)C[C@H](NC(=O)[C@H]1O[C@@H]1C(=O)O)C(=O)NCCCCN=C(N)N` [Compound E-64, E-64], for which the “Percentage inhibition (%), Reference” value in data set [15] is listed as 91%; in data set [16] it was 97%; in data set [17] it was 97%; in data set [18], 83%.

Regarding `CCCCCC(=O)N[C@H]1CSCc2cc(CSCCNC(=O)CN3CCN4CCN(CC(=O)O)CCN(CC3)CC(=O)[O][Cu][O]C(=O)C4)cc(c2)CSC[C@@H](C(=O)O)NC(=O)[C@H](Cc2ccccc2)NC(=O)[C@H](CCC(N)=O)NC(=O)[C@H]([C@@H](C)O)NC(=O)[C@@H]2CCCN2C(=O)[C@@H]2CCCN2C1=O` [Compound 3BP-4293, Hex-[Cys-(tMeBn(CuDOTA-AET))-Pro-Pro-Thr-Gln-Phe-Cys]-OH], the IC50 in data set [2] and in data set [3] was less than 10 nM each time.

Regarding alpha-dendrotoxin [reference compound], the Ki in data set [19] amounted to 0.097 nM.

With `O=C(O)[C@@H]1C[C@H](CP(=O)(O)O)CCN1` [CGS 19755, reference compound], the Ki in [20] came to 140 nM.

As for Cystatin C, the “Percentage inhibition (%), Reference” value in [21] worked out at 74%.

What is called inhibition is the change of the read-out against control, counted positive when it falls. The term IC50 denotes the midpoint of a concentration-inhibition curve. Low readings indicate greater potency in that assay, high ones weaker potency in that assay. Usually share remaining stands for what is left of the initial amount, in per cent. Lower therefore signals a greater loss. Broadly, the Kd is the equilibrium constant for the complex coming apart. A higher Kd goes with lower affinity. Usually Ki stands for the equilibrium dissociation constant of an inhibitor or competing ligand from its target.
